{
  "source": "patent US12404526B2",
  "about": "“Enhancing agents for improved cell transfection and/or rAAV vector production” (priority 2017, dated 2025)",
  "system": "HEK 293F cells",
  "assay": "rAAV-FVIII vector production by PEI-transfected HEK 293F cells with enhancing agents, vector genome titer by Q-PCR",
  "type": "cell-based, human",
  "method": "Cell Culture: FreeStyle™ 293F (HEK 293F) cells purchased from Thermo Fisher Scientific (R79007) were cultured in FreeStyle™ F17 (F17) expression medium (Thermo Fisher Scientific, A1383501) supplemented with 1× GlutaMAX™ (Thermo Fisher Scientific, 35050-061) and 1× Antibiotic-antimycotic (Thermo Fisher Scientific, 15240). Cells were cultured in spinner flasks (Corning, 3152 or 3153), shake flask (Corning 431143, or 431145) or bioreactors. For spinner/shake flask, cells were cultured at 37° C. incubator with 170 rpm agitation and a humidified atmosphere of 8% CO2; for bioreactors (Eppendorf, DASGIP Parallel Bioreactor system, glass vessels and single use vessels), cell culture was controlled by programed parameters, (DO 40%, pH 7.2, agitation at 130 rpm, 150 rpm or 170 rpm). Typically, cells were seeded at 0.25-0.5×10^6/mL, subcultured every 2-3 days by adding fresh cell culture medium when cell density reached approximately 2-3×10^6/mL. Cell density and viability were determined using a Vi-cell™ XR cell viability Analyzer (Beckman Coulter).\nPlasmids: Three plasmids were used to produce recombinant adeno-associated viral vectors (rAAV): 1) Transgene plasmid containing hFVIII flanked by ITRs, 2) A packaging plasmid containing rep and cap genes, 3) An adenoviral helper plasmid containing adenovirus E2, E4 and VARNA genes. All plasmids were purchased from and manufactured by Aldevron.\nPreparation of PEI solutions: Linear polyethylenimine (PEI) “Max” 40 KDa (Polysciences, 24765-2, hydrochloride salt of the linear PEI 25 KDa) was used as transfection reagent. For transfection optimization studies, PEI “Max” was dissolved in 5 mM Tris to make a 0.5 mg/mL solution and the solution was adjusted to different pH, including pH7.0, 7.1, 7.2, 7.3, 7.4, 7.6, 7.8, or 8.0. After several studies, PEI solution at pH 7.1 was selected for all studies if not specified because of the best transfection and rAAV production.\nUsing enhancing agents in PEI-mediated transfection: The potential transfection enhancing agents evaluated for their effect on transfection and rAAV production were enhancer 1 and 2 in ExpiFectamine™ 293 Transfection Kit (Thermo Fisher Scientific, A14525), P3000 reagent in Lipofectamine® 3000 Transfection Kit (Thermo Fisher Scientific, L3000015), enhancer in Effectene™ Transfection Reagent Kit (Qiagen, 301427). Also studied were a variety of compounds including valproic acid, etoposide, teniposide, siomycin A and vorinostat to test their effectiveness on PEI cell transfection and rAAV production.\nHEK 293F cells were grown in F17 medium plus 1× GlutaMAX™ Supplement and 1× Antibiotic-antimycotic in spinner flasks or shake flasks. The day before transfection, cells were seeded at 0.5-2×10^6 cells/mL by adding fresh medium. After 24 hr, cells were transfected at a cell density of 1-4×10^6 cells/mL. Three plasmids for transfection, hFVIII, Rep/cap, Ad2 helper, were used at a molar ratio of 1:1:1, 0.5:1:1 and 1:2:2, and at weight ratio of 0.75:0.75:0.75, 1:1:1 and 1.5:1.5:1.5. The total DNA amount used for transfection was from 0.5 to 4.2 μg per mL of cell culture volume. PEI/DNA complex was prepared with different weight ratios of PEI and DNA, at 1:1, 1.5:1, 2:1, 2.5:1 and 3:1, incubated at room temperature for 1, 5, 10, 15, 20, 25 and 30 minutes, then the DNA/PEI complexes were added to the cell culture. Free PEI (without DNA) from 0.5 to 5.6 μg/mL was added to the cell culture immediately after DNA/PEI complexes. Enhancing agents were added directly to the cells at the time of transfection or 24 hr before transfection or 16-18 hr after transfection. Different amounts of enhancing agents were studied. Samples, including cells and cell culture media, were taken at 48 and 72 hr post transfection for cell count and cell viability and cell culture was harvested at 72 hr post transfection. […]",
  "data": [
    {"molecule": "CCCC(CCC)C(=O)O", "note": "[valproic acid]", "values": [
      {"measurement": "rAAV vector production, fold higher than in the absence of valproic acid", "setting": "2 mM at transfection, spinner flask, 1.2 μg/mL DNA, PEI/DNA 2:1, 1.5 μg/mL free PEI, FIG. 7", "value": 10, "unit": "fold"},
      {"measurement": "AAV vector production at increased valproic acid concentrations", "setting": "1L bioreactor culture, 4 mM or higher, such as 5-8 mM, FIG. 8", "value": "improved"},
      {"measurement": "AAV vector production, fold higher compared with 2 mM of valproic acid", "setting": ">4 mM (up to 8 mM) at transfection, 1 L bioreactor, PEI/DNA 2.5, FIG. 8", "value": "1.2-1.8 fold"},
      {"measurement": "effect on rAAV productivity (compound screen)", "setting": "added at transfection, PEI-mediated transfection", "value": "significantly increased"},
      {"measurement": "rAAV-FVIII vector titer, fold increase compared to that without any enhancers", "setting": "optimized PEI-mediated transfection, serum-free suspension culture, 0.25-10 mM tested, FIG. 7", "value": "around 10 fold"},
      {"measurement": "rAAV productivity level compared with enhancer 1 and 2", "setting": "optimized PEI-mediated transfection, serum-free suspension culture, FIG. 7", "value": "same rAAV productivity level or higher"},
      {"measurement": "rAAV vector productivity, fold higher than the currently reported production protocol using similar technologies", "setting": "used alone in the optimized PEI-based transfection method", "value": "about 10 fold"}
    ]}
  ]
}
